# According to patent publication US20240262815A1, “HETEROARYL DERIVATIVE, METHOD FOR PREPARING SAME, AND PHARMACEUTICAL COMPOSITION COMPRISING SAME AS ACTIVE INGREDIENT” (VORONOI INC., priority 2021, published 2024):
# Test system: SK-BR-3 cancer cells
# Assay: Inhibitory activity against proliferation of SK-BR-3 cancer cells (CellTiter-Glo)
# Format: cell-based
# Conditions: ErbB2-overexpressing SK-BR-3 cells, 120 hours after treatment
# Description: To evaluate the inhibitory activity of a compound according to the present invention against the proliferation of ErbB2-overexpressing cancer cells, the following experiment were performed.
# 10% FBS-added McCOY'S 5A was used for SK-BR-3 cancer cells. 20% FBS-added RPMI-1640 was used for BT-474 cancer cells. Transduced Ba/F3 cells were cultured in a RPMI-1640 medium to which 1 μg/ml puromycin (Invitrogen) was added.
# 48 hours before compound treatment, each type of the SK-BR-3 and BT-474 cells were seeded at 5,000 cells/well in a white clear bottom 96 well plate (Corning). The compound was diluted in dimethyl sulfoxide (SK-BR-3: 3-fold dilution, a total of 12 concentrations, BT-474: […], a total of 12 concentrations) and injected at 1 μl to have the final concentration of 0.2 nM to 5 μM. As for measurement of live cells, 120 hours after treatment with the compound, a CellTiter-Glo luminescent cell-viability reagent (Promega) was used to store the cells at room temperature for 10 minutes, followed by measurement of luminescence using a reader (SynergyNeo, Biotek). Each test was repeated three times.
# The result values were calculated as a cell growth rate (%) compared to the control group. A graph was plotted using the GraphPad Prism version 8.3.0 program, and GI50 values were calculated.
row,GI50,SMILES
1,0.05 to 0.5 µM,"C=CC(=O)Nc1cc(Nc2cc(N3OCCC3c3cccc(-c4cccc(F)c4)c3)ncn2)c(OC)cc1N(C)CCN(C)C (centres unmarked) [Example 212, N-(2-((2-(dimeth-yl-amino)ethyl)-(methyl)amino)-5-((6-(3-(3′-fluoro-[1,1′-biphenyl]-3-yl)isoxazolidin-2-yl)pyrimidin-4-yl)amino)-4-meth-oxyphenyl)acryl-amide]"

# Same assay, conditions: Homo sapiens, SK-BR-3, 120 h, ErbB2-overexpressing SK-BR-3 cells, 120 hours after treatment
row,GI50,SMILES
1,0.05 to 0.5 µM,"C=CC(=O)Nc1cc(Nc2cc(N3OCC[C@@H]3c3cc(F)cc(-c4cccnc4)c3)ncn2)c(OC)cc1N1CCN(C)CC1 [Example 177, (R)-N-(5-((6-(3-(3-fluoro-5-(pyr-idin-3-yl)phenyl)-isoxazolidin-2-yl)-pyrimidin-4-yl)-amino)-4-meth-oxy-2-(4-methyl-piperazin-1-yl)-phenyl)acrylamide]"
2,< 0.05 µM,"C=CC(=O)Nc1cc(Nc2cc(N3OCC[C@@H]3c3cc(F)cc(-c4cccnc4)c3)ncn2)c(OC)cc1N(C)CCN(C)C [Example 178, (R)-N-(2-((2-(dimethylamino)-ethyl)(methyl)-amino)-5-((6-(3-(3-fluoro-5-(pyr-idin-3-yl)phenyl)-isoxazolidin-2-yl)-pyrimidin-4-yl)-amino)-4-methoxy-phenyl)acrylamide]"
3,< 0.05 µM,"C=CC(=O)Nc1cc(Nc2cc(N3OCCC3c3cccc(-c4cccs4)c3)ncn2)c(OC)cc1N1CCC(N2CCN(C3CC3)CC2)CC1 (centres unmarked) [Example 182, N-(2-(4-(4-cyclo-propylpiperazin-1-yl)piperidin-1-yl)-4-methoxy-5-((6-(3-(3-(thiophen-2-yl)phenyl)isoxazol-idin-2-yl)pyrim-idin-4-yl)amino)-phenyl)acrylamide]"
4,0.05 to 0.5 µM,"C=CC(=O)Nc1cc(Nc2cc(N3OCC[C@@H]3c3cccc(C(=O)OC4CCCCC4)c3)ncn2)c(OC)cc1N1CCC(N2CCN(C3CC3)CC2)CC1 [Example 185, cyclohexyl (R)-3-(2-(6-((5-acryl-amido-4-(4-(4-cyclopropylpiper-azin-1-yl)piper-idin-1-yl)-2-meth-oxyphenyl)amino)-pyrimidin-4-yl)-isoxazolidin-3-yl)-benzoate]"
5,< 0.05 µM,"C=CC(=O)Nc1cc(Nc2cc(N3OCC[C@@H]3c3cccc(-c4ccccc4)c3)ncn2)c(OC)cc1N1CCC(N2CCN(C3CC3)CC2)CC1 [Example 190, (R)-N-(5-((6-(3-([1,1′-biphenyl]-3-yl)isoxazolidin-2-yl)pyrimidin-4-yl)-amino)-2-(4-(4-cyclopropylpiper-azin-1-yl)piper-idin-1-yl)-4-meth-oxyphenyl)acryl-amide]"
6,0.05 to 0.5 µM,"C=CC(=O)Nc1cc(Nc2cc(N3OCC[C@@H]3c3cc(F)cc(Oc4cccc(F)c4)c3)ncn2)c(OC)cc1N1CCN(C)CC1 [Example 191, (R)-N-(5-((6-(3-(3-fluoro-5-(3-fluoro-phenoxy)phenyl)-isoxazolidin-2-yl)-pyrimidin-4-yl)-amino)-4-meth-oxy-2-(4-methyl-piperazin-1-yl)-phenyl)acrylamide]"
7,< 0.05 µM,"C=CC(=O)Nc1cc(Nc2cc(N3OCC[C@@H]3c3cc(F)cc(-c4ccsc4)c3)ncn2)c(OC)cc1N1CCN(C)CC1 [Example 193, (R)-N-(5-((6-(3-(3-fluoro-5-(thiophen-3-yl)phenyl)isox-azolidin-2-yl)pyr-imidin-4-yl)amino)-4-methoxy-2-(4-methylpiperazin-1-yl)phenyl)acryl-amide]"
8,< 0.05 µM,"C=CC(=O)Nc1cc(Nc2cc(N3OCC[C@@H]3c3cc(F)cc(-c4ccsc4)c3)ncn2)c(OC)cc1N(C)CCN(C)C [Example 194, (R)-N-(2-((2-(dimethylamino)-ethyl)(methyl)-amino)-5-((6-(3-(3-fluoro-5-(thio-phen-3-yl)phenyl)-isoxazolidin-2-yl)-pyrimidin-4-yl)-amino)-4-methoxy-phenyl)acrylamide]"
9,< 0.05 µM,"C=CC(=O)Nc1cc(Nc2cc(N3OCC[C@@H]3c3cc(F)cc(OCc4ccccn4)c3)ncn2)c(OC)cc1N1CCN(C)CC1 [Example 195, (R)-N-(5-((6-(3-(3-fluoro-5-(pyr-idin-2-ylmethoxy)-phenyl)isoxazol-idin-2-yl)pyrim-idin-4-yl)amino)-4-methoxy-2-(4-methylpiperazin-1-yl)phenyl)-acrylamide]"
10,< 0.05 µM,"C=CC(=O)Nc1cc(Nc2cc(N3OCC[C@@H]3c3cc(F)cc(OCc4ccccn4)c3)ncn2)c(OC)cc1N(C)CCN(C)C [Example 196, (R)-N-(2-((2-(dimethylamino)-ethyl)(methyl)-amino)-5-((6-(3-(3-fluoro-5-(pyr-idin-2-ylmethoxy)-phenyl)isoxazol-idin-2-yl)pyrim-idin-4-yl)amino)-4-methoxyphen-yl)acrylamide]"
11,< 0.05 µM,"C=CC(=O)Nc1cc(Nc2cc(N3OCCC3c3cccc(-c4ccc5ncnn5c4)c3)ncn2)c(OC)cc1N1CCN(C)CC1 (centres unmarked) [Example 197, N-(5-((6-(3-(3-([1,2,4]triazolo-[1,5-a]pyridin-6-yl)phenyl)isoxazol-idin-2-yl)pyrim-idin-4-yl)amino)-4-methoxy-2-(4-methylpiperazin-1-yl)phenyl)-acrylamide]"
12,< 0.05 µM,"C=CC(=O)Nc1cc(Nc2cc(N3OCCC3c3cccc(-c4ccc5ncnn5c4)c3)ncn2)c(OC)cc1N(C)CCN(C)C (centres unmarked) [Example 198, N-(5-((6-(3-(3-([1,2,4]triazolo-[1,5-a]pyridin-6-yl)phenyl)isoxazol-idin-2-yl)pyrim-idin-4-yl)amino)-2-((2-(dimethyl-amino)ethyl)-(methyl)amino)-4-methoxyphen-yl)acrylamide]"
13,0.05 to 0.5 µM,"C=CC(=O)Nc1cc(Nc2cc(N3OCC[C@@H]3c3cc(F)cc(Oc4cccc(F)c4)c3)ncn2)c(OC)cc1N(C)CCN(C)C [Example 199, (R)-N-(2-((2-(dimethylamino)-ethyl)(methyl)-amino)-5-((6-(3-(3-fluoro-5-(3-fluorophenoxy)-phenyl)isoxazol-idin-2-yl)pyrim-idin-4-yl)amino)-4-methoxyphen-yl)acrylamide]"
14,< 0.05 µM,"C=CC(=O)Nc1cc(Nc2cc(N3OCCC3c3cccc(-c4cnc5ccnn5c4)c3)ncn2)c(OC)cc1N(C)CCN(C)C (centres unmarked) [Example 202, N-(2-((2-(dimethyl-amino)ethyl)-(methyl)amino)-4-methoxy-5-((6-(3-(3-(pyrazolo[1,5-a]pyrimidin-6-yl)-phenyl)isoxazol-idin-2-yl)pyrim-idin-4-yl)amino)-phenyl)acrylamide]"
15,< 0.05 µM,"C=CC(=O)Nc1cc(Nc2cc(N3OCCC3c3cccc(-c4cccn5ccnc45)c3)ncn2)c(OC)cc1N1CCN(C)CC1 (centres unmarked) [Example 203, N-(5-((6-(3-(3-(imidazo[1,2-a]-pyridin-8-yl)phen-yl)isoxazolidin-2-yl)pyrimidin-4-yl)amino)-4-meth-oxy-2-(4-methyl-piperazin-1-yl)-phenyl)acrylamide]"
16,< 0.05 µM,"C=CC(=O)Nc1cc(Nc2cc(N3OCCC3c3cccc(-c4cccn5ccnc45)c3)ncn2)c(OC)cc1N(C)CCN(C)C (centres unmarked) [Example 204, N-(2-((2-(dimeth-ylamino)ethyl)-(methyl)amino)-5-((6-(3-(3-(imidazo-[1,2-a]pyridin-8-yl)phenyl)isoxazol-idin-2-yl)pyrim-idin-4-yl)amino)-4-methoxyphen-yl)acrylamide]"
17,0.5 to 5 µM,C=CC(=O)Nc1cc(Nc2cc(N3OCC[C@@H]3c3cc(F)cc(-c4cccc(F)c4)c3)ncn2)c(OC)cc1N1CCC(N2CCN(C3CC3)[C@H](C)C2)CC1 [Example 206]
18,< 0.05 µM,"C=CC(=O)Nc1cc(Nc2cc(N3OCC[C@@H]3c3cc(F)cc(-c4cccc(F)c4)c3)ncn2)c(OC)cc1N1CCC(N2CCOCC2)CC1 [Example 207, (R)-N-(5-((6-(3-(3′,5-difluoro-[1,1′-biphenyl]-3-yl)isoxazolidin-2-yl)pyrimidin-4-yl)-amino)-4-methoxy-2-(4-morpholino-piperidin-1-yl)-phenyl)acrylamide]"
19,< 0.05 µM,"C=CC(=O)Nc1cc(Nc2cc(N3OCC[C@@H]3c3cc(F)cc(-c4cccc(F)c4)c3)ncn2)c(OC)cc1N(C)CCN(C)C [Example 208, (R)-N-(5-((6-(3-(3′,5-difluoro-[1,1′-biphenyl]-3-yl)-isoxazolidin-2-yl)-pyrimidin-4-yl)-amino)-2-((2-(dimethylamino)-ethyl)(methyl)-amino)-4-methoxy-phenyl)acrylamide]"
20,< 0.05 µM,"C=CC(=O)Nc1cc(Nc2cc(N3OCC[C@@H]3c3cc(F)cc(-c4cccc5ncnn45)c3)ncn2)c(OC)cc1N1CCN(C)CC1 [Example 209, (R)-N-(5-((6-(3-(3-([1,2,4]triazolo-[1,5-a]pyridin-5-yl)-5-fluorophen-yl)isoxazolidin-2-yl)pyrimidin-4-yl)-amino)-4-methoxy-2-(4-methylpiper-azin-1-yl)phenyl)-acrylamide]"
21,< 0.05 µM,"C=CC(=O)Nc1cc(Nc2cc(N3OCC[C@@H]3c3cc(F)cc(-c4cccc5ncnn45)c3)ncn2)c(OC)cc1N(C)CCN(C)C [Example 210, (R)-N-(5-((6-(3-(3-([1,2,4]triazolo-[1,5-a]pyridin-5-yl)-5-fluorophen-yl)isoxazolidin-2-yl)pyrimidin-4-yl)-amino)-2-((2-(dimethylamino)-ethyl)(methyl)-amino)-4-methoxy-phenyl)acrylamide]"
22,0.05 to 0.5 µM,"C=CC(=O)Nc1cc(Nc2cc(N3OCCC3c3cccc(-c4cccc(F)c4)c3)ncn2)c(OC)cc1N1CCN(C)CC1 (centres unmarked) [Example 211, N-(5-((6-(3-(3′-fluoro-[1,1′-biphenyl]-3-yl)-isoxazolidin-2-yl)-pyrimidin-4-yl)-amino)-4-methoxy-2-(4-methylpiper-azin-1-yl)phenyl)-acrylamide]"
